Source: patent publication US11422132B2, “Peptides and uses thereof for diagnosing and treating myasthenia gravis” (The Regents of the University of California, priority 2016, dated 2022)
Entries after “also recorded” stand apart in the source; their conditions may differ.

Key:
Assay type in all cases: binding, rat
[1] = tested on: mAb 35; assay: Western blot of peptide-IChBD fusion proteins probed with mAb 35; set-up: key to mAb 35, fold-change in binding relative to Torpedo 39MIR: ‘—’ denotes no binding; conditions: for mAb 35 binding compared to the Torpedo 39MIR peptide: single point mutated human 39MIR peptides
[2] = tested on: mAb 35; assay: as above; set-up: key to mAb 35, fold-change in binding relative to Torpedo 39MIR: ‘—’ denotes no binding; conditions: for mAb 35 binding, result in words: Western blot; for mAb 35, fold-change in binding relative to Torpedo 39MIR: Table 1, Western blot of FIG. 5, Torpedo 39MIR single mutants
Experimental: (§1) Chitin beads adsorbed with peptide-IChBD fusion proteins were run on an SDS-PAGE gel and transferred to a nitrocellulose membrane and assayed with the four mAbs.
(§2) Chitin beads adsorbed with peptide-IChBD fusion proteins were run on an SDS-PAGE gel and transferred to a nitrocellulose membrane and assayed with the five mAbs.
(§3) To explore the effects of individual amino acid substitutions between the Torpedo and the human AChR MIR mimics, eight peptides were prepared, each with an amino acid substituted from the human sequence into the Torpedo sequence. The single amino acid substitutions in the Torpedo MIR were: N10K (SEQ ID NO:11), L12F (SEQ ID NO:12), R66K (SEQ ID NO:13), A70D (SEQ ID NO:14), I75V (SEQ ID NO:15), R79H (SEQ ID NO:16), D111Q (SEQ ID NO:17), and K115H (SEQ ID NO:18).

[3] = tested on: mAb 198; assay: Western blot of peptide-IChBD fusion proteins probed with mAb 198; conditions: for mAb 198 binding compared to its binding to the human 39MIR: human 39MIR mutants, relative to human 39MIR; for mAb 198 binding, result in words: Western blot
Text: as §1, §2
The Torpedo (SEQ ID NO:9) and human (SEQ ID NO:8) 39MIRs were made by joining the α(1-12), α(65-79), and α(110-115) segments of their respective a subunits with GS linkers. These two MIR mimics were expressed in E. coli as fusion proteins with an IChBD tag to permit peptide collection on chitin beads. These two peptides differ from each other by eight amino acids (FIG. 2). Both mimics were probed with mAb 198. mAb 198, which was derived from rats that had been immunized with human muscle AChR, is a MIR-directed mAb that binds mammalian as well as Torpedo MIR (13,21). It was also able to passively transfer EAMG to rats and binds to both native assembled AChR and to α-subunit fragments in Western blots (22,23). mAb 198 binds to the Torpedo and human MIR peptide mimics in Western blots (FIG. 3). However, mAb 198 binds to the Torpedo mimic about 50 times more strongly than to the human MIR mimic (FIG. 3).
as §3

[4] = tested on: mAb 132A; assay: Western blot of peptide-IChBD fusion proteins probed with mAb 132A; set-up: key to mAb 132A, fold-change in binding relative to Torpedo 39MIR: ‘—’ denotes no binding
[5] = tested on: mAb 132A; assay: as above; conditions: for mAb 132A binding relative to binding to the Torpedo 39MIR: FIG. 5 Western blots, Torpedo 39MIR single mutants; for mAb 132A, fold-change in binding relative to Torpedo 39MIR: Table 1, Western blot of FIG. 5, Torpedo 39MIR single mutants
Experimental: as §1, §2, §3

[6] = tested on: mAb 334; assay: Western blot of peptide-IChBD fusion proteins probed with mAb 334; conditions: for mAb 334 binding relative to Torpedo 39MIR: FIG. 5 Western blots, Torpedo 39MIR single mutants; for mAb 334, fold-change in binding relative to Torpedo 39MIR: Table 1, Western blot of FIG. 5, Torpedo 39MIR single mutants
Experimental: as §2, §3

[7] = Table 3, single-substitution human 39MIR mutants
[8] = Table 2, Western blot of FIG. 7, human 39MIR multiple mutants
[9] = Table 1, Western blot of FIG. 5, Torpedo 39MIR single mutants

Sequence | mAb 35, fold-change in binding relative to Torpedo 39MIR [1, 7] | mAb 35 binding compared to the Torpedo 39MIR peptide [1] | mAb 35 binding, result in words [2] | mAb 198, fold-change in binding relative to Torpedo 39MIR [3, 7] [fold-change] | mAb 198 binding compared to its binding to the human 39MIR [3] [×] | mAb 132A, fold-change in binding relative to Torpedo 39MIR [4, 7] | also measured
SEHETRLVAKLFGGGSLKWNPDDYGGVKKIHGSLDYTGH [Q111D] (synthetic main immunogenic region (MIR) peptide) [Mutant Q111D, Human 39MIR single mutant (Q111D)] | 0.06 fold-change | 0.06 | restored mAb 35 binding | 0.59 | 35.7 | — | 
SEHETRLVAKLFGGGSLKWNPADYGGVKKIHGSLQYTGH (synthetic main immunogenic region (MIR) peptide) [Mutant D70A, Human 39MIR single mutant (D70A)] | — |  | failed to restore mAb 35 binding | 0.02 |  | — | mAb 198 binding, result in words [3]: comparable to binding to human 39MIR
SEHETRLVAKLFGGGSLKWNPDDYGGIKKIHGSLQYTGH (synthetic main immunogenic region (MIR) peptide) [Mutant V75I, Human 39MIR single mutant (V75I)] | 0.03 fold-change | 0.03 | restored mAb 35 binding | 0.65 | 40 | — | 
SEHETRLVANLFGGGSLKWNPADYGGVKKIHGSLQYTGH (synthetic main immunogenic region (MIR) peptide) [K10N/D70A, Human 39MIR double mutant (K10N/D70A)] |  |  | restored binding |  |  |  | mAb 35, fold-change in binding relative to Torpedo 39MIR [1, 8]: 0.31 fold-change; mAb 132A binding, result in words ([5]; Western blot): restored binding; mAb 198, fold-change in binding relative to Torpedo 39MIR [3, 8]: 0.72 fold-change; mAb 198 binding, result in words [3]: restored binding; mAb 132A, fold-change in binding relative to Torpedo 39MIR [4, 8]: 0.16 fold-change
SEHETRLVANLFGGGSLKWNPDDYGGVKKIHGSLQYTGH (synthetic main immunogenic region (MIR) peptide) [Mutant K10N, Human 39MIR single mutant (K10N)] | 0.01 fold-change | 0.01 | restored mAb 35 binding | 0.23 | 13 | — | 
SEHETRLVANLLGGGSLRWNPADYGGIKKIHGSLDYTGK (synthetic main immunogenic region (MIR) peptide) [Mutant R79H, Torpedo 39MIR single mutant (R79H)] |  |  |  |  |  |  | mAb 334 binding relative to Torpedo 39MIR [6]: 2.40 ×; mAb 334, fold-change in binding relative to Torpedo 39MIR [6]: 2.40 fold-change; mAb 35 binding relative to binding to the Torpedo 39MIR ([2]; FIG. 5 Western blots, Torpedo 39MIR single mutants): 1.91 ×; mAb 35, fold-change in binding relative to Torpedo 39MIR [2]: 1.91 fold-change; mAb 132A binding relative to binding to the Torpedo 39MIR [5]: 1.65 ×; mAb 132A, fold-change in binding relative to Torpedo 39MIR [5]: 1.65 fold-change; mAb 198, fold-change in binding relative to Torpedo 39MIR [3, 9]: 0.97 fold-change
SEHETRLVANLLGGGSLRWNPADYGGIKKIRGSLDYTGH (synthetic main immunogenic region (MIR) peptide) [Mutant K115H, Torpedo 39MIR single mutant (K115H)] |  |  | did not bind; also recorded: completely abolished |  |  |  | mAb 334 binding relative to Torpedo 39MIR [6]: 0.42 ×; mAb 334, fold-change in binding relative to Torpedo 39MIR [6]: 0.42 fold-change; mAb 35, fold-change in binding relative to Torpedo 39MIR [2]: —; mAb 132A binding relative to binding to the Torpedo 39MIR [5]: 0.40 ×; mAb 132A, fold-change in binding relative to Torpedo 39MIR [5]: 0.40 fold-change; mAb 198, fold-change in binding relative to Torpedo 39MIR [3, 9]: 1.07 fold-change
